{
  "source": "patent US6921768B2",
  "about": "“Cytostatic cerium compounds” (Faustus Forschungs Cie. Translational Cancer Research GmbH, priority 2001, dated 2005)",
  "key": {"[1]": {"test_system": "over 50 human tumour cell lines", "settings": "48-h sulphurhodamine B-assay", "description": "First in vitro tests were carried out at the National Cancer Institute (Bethesda, Md., USA)."}, "[2]": {"test_system": "13 human tumour xenografts and 10 human tumour cell lines", "settings": "propidium iodide assay"}, "[3]": {"settings": "mean over more than 50 human tumour cell lines"}, "[4]": {"settings": "mean over 13 human tumour xenografts and 10 human tumour cell lines"}},
  "data": [
    {"smiles": "O.[Cl-].[Cl-].[Cl][Ce+2].c1cnc2c(c1)ccc1cccnc12.c1cnc2c(c1)ccc1cccnc12", "note": "[KP 776, trans-[aquachlorobis(1,10-phenantrolin)cerium(III)]-dichloride]", "values": [
      {"measurement": "Mean Gl50", "setting": "[1]; [3]", "value": 0.61, "unit": "µg/mL"},
      {"measurement": "Mean LC50", "setting": "[1]; [3]", "value": 39.4, "unit": "µg/mL"},
      {"measurement": "activity on single ovarian, kidney cell and parvicellular and non-parvicellular bronchial carcinoma cell lines", "setting": "[1]; result in words", "value": "Above average activities"},
      {"measurement": "selectivity among tumour cell line types", "setting": "[1]; result in words", "value": "a certain selectivity for malignant melanoma was evident"},
      {"measurement": "IC50", "setting": "[1]; read-out: Mean Gl50, mean over more than 50 human tumour cell lines", "value": 0.98, "unit": "µM"},
      {"measurement": "CC50", "setting": "[1]; read-out: Mean LC50, mean over more than 50 human tumour cell lines", "value": 63.1, "unit": "µM"},
      {"measurement": "Mean IC50", "setting": "[2]; [4]", "value": 1.20, "unit": "µg/mL"},
      {"measurement": "Mean IC90", "setting": "[2]; [4]", "value": 7.27, "unit": "µg/mL"},
      {"measurement": "tumour type with strongest effectiveness", "setting": "[2]; result in words", "value": "the strongest effectiveness was found on a melanoma (xenograft)"},
      {"measurement": "IC50", "setting": "[2]; read-out: Mean IC50, mean over 13 human tumour xenografts and 10 human tumour cell lines", "value": 1.92, "unit": "µM"},
      {"measurement": "IC90", "setting": "[2]; read-out: Mean IC90, mean over 13 human tumour xenografts and 10 human tumour cell lines", "value": 11.6, "unit": "µM"}
    ]}
  ]
}
